Reference: patent US10045983B2, “Heteroaryl pyridone and aza-pyrodine compounds” (Genentech, Inc., priority 2011, dated 2018)

Assay: CD69 Whole Blood Assay (CD69 Hu Blood FACS)
Type: cell-based, human
Conditions: Lymphocyte; human whole blood, anti-IgM activated B lymphocytes, FACS; IC70; Table 1; read-out: CD69 Hu Blood FACS IC70
Procedure, shortened: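 Human whole blood stimulated by crosslinking surface IgM with goat F(ab′)2 anti-human IgM; inhibition of CD69 expression on B lymphocytes measured by flow cytometry.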

SMILES	IC70 [nM]
Cn1cc(-c2ccnc(N3CCn4c(cc5c4CCCC5)C3=O)c2CO)cc(Nc2cnccn2)c1=O [Example 162, 2-[3′-Hydroxymethyl-1-methyl-6-oxo-5-(pyrazin-2-ylamino)-1,6-dihydro-[3,4′]bipyridinyl-2′-yl]-3,4,6,7,8,9-hexahydro-2H-pyrazino[1,2-a]indol-1-one]	434
Cn1cc(-c2ccnc(N3CCn4c(cc5c4CC(C)(C)C5)C3=O)c2CO)cc(Nc2cc3n(n2)CCN(C2COC2)C3)c1=O [Example 163, 2-[3′-Hydroxymethyl-1-methyl-5-(5-oxetan-3-yl-4,5,6,7-tetrahydro-pyrazolo[1,5-a]pyrazin-2-ylamino)-6-oxo-1,6-dihydro-[3,4′]bipyridinyl-2′-yl]-7,7-dimethyl-3,4,7,8-tetrahydro-2H,6H-cyclopenta[4,5]pyrrolo[1,2-a]pyrazin-1-one]	22.8
CC[C@H]1CN(C2COC2)CCN1c1ccc(Nc2cc(-c3ccnc(N4CCn5c(cc6c5CC(C)(C)C6)C4=O)c3CO)cn(C)c2=O)nc1 [Example 164, 2-{5-[5-((S)-2-Ethyl-4-oxetan-3-yl-piperazin-1-yl)-pyridin-2-ylamino]-3′-hydroxymethyl-1-methyl-6-oxo-1,6-dihydro-[3,4′]bipyridinyl-2′-yl}-7,7-dimethyl-3,4,7,8-tetrahydro-2H,6H-cyclopenta[4,5]pyrrolo[1,2-a]pyrazin-1-one]	29
CC[C@H]1CN(C2COC2)CCN1c1ccc(Nc2cc(-c3ccnc(-n4ccn5c6c(cc5c4=O)CCCC6)c3CO)cn(C)c2=O)nc1 [Example 165, 2-{5-[5-((S)-2-Ethyl-4-oxetan-3-yl-piperazin-1-yl)-pyridin-2-ylamino]-3′-hydroxymethyl-1-methyl-6-oxo-1,6-dihydro-[3,4′]bipyridinyl-2′-yl}-6,7,8,9-tetrahydro-2H-pyrazino[1,2-a]indol-1-one]	41.7
Cn1cc(-c2ccnc(N3CCn4c5c(c(F)c4C3=O)CCCC5)c2CO)cc(Nc2cc3n(n2)CCN(C2COC2)C3)c1=O [Example 166, 10-Fluoro-2-[3′-hydroxymethyl-1-methyl-5-(5-oxetan-3-yl-4,5,6,7-tetrahydro-pyrazolo[1,5-a]pyrazin-2-ylamino)-6-oxo-1,6-dihydro-[3,4′]bipyridinyl-2′-yl]-3,4,6,7,8,9-hexahydro-2H-pyrazino[1,2-a]indol-1-one]	155
Cn1cc(-c2ccnc(N3CCn4c(cc5c4CC(C)(C)C5)C3=O)c2CO)cc(Nc2cc3n(n2)CCOC3)c1=O [Example 168, 2-[5-(6,7-Dihydro-4H-pyrazolo[5,1-c][1,4]oxazin-2-ylamino)-3′-hydroxymethyl-1-methyl-6-oxo-1,6-dihydro-[3,4′]bipyridinyl-2′-yl]-7,7-dimethyl-3,4,7,8-tetrahydro-2H,6H-cyclopenta[4,5]pyrrolo[1,2-a]pyrazin-1-one]	63.5
Cn1cc(-c2ccnc(N3CCc4c(sc5c4CCCC5)C3=O)c2CO)cc(Nc2ccc(N3CCN(C4COC4)CC3)cn2)c1=O [Example 169, 2-{3′-Hydroxymethyl-1-methyl-5-[5-(4-oxetan-3-yl-piperazin-1-yl)-pyridin-2-ylamino]-6-oxo-1,6-dihydro-[3,4′]bipyridinyl-2′-yl}-3,4,5,6,7,8-hexahydro-2H-benzo[4,5]thieno[2,3-c]pyridin-1-one]	206
C[C@H]1CN(C2COC2)CCN1c1ccc(Nc2cc(-c3ccnc(N4CCn5c(cc6c5[C@H]5CC[C@@H]6C5)C4=O)c3CO)cn(C)c2=O)nc1 [Example 171, (S)-2-(3-(hydroxymethyl)-4-(1-methyl-5-(5-(2-methyl-4-(oxetan-3-yl)piperazin-1-yl)pyridin-2-ylamino)-6-oxo-1,6-dihydropyridin-3-yl)pyridin-2-yl)-3,4,6,7,8,9-hexahydro-6,9-methanopyrazino[1,2-a]indol-1(2H)-one]	36
Cn1cc(-c2ccnc(N3CCn4c(cc5c4CCCC5)C3=O)c2CO)cc(Nc2nccnn2)c1=O [Example 172, 2-(4-(5-(1,2,4-triazin-3-ylamino)-1-methyl-6-oxo-1,6-dihydropyridin-3-yl)-3-(hydroxymethyl)pyridin-2-yl)-3,4,6,7,8,9-hexahydropyrazino[1,2-a]indol-1(2H)-one]	5000
Cc1cc(Nc2cc(-c3ccnc(N4CCn5c(cc6c5CC(C)(C)C6)C4=O)c3CO)cn(C)c2=O)nc(C)n1 [Example 173, 2-[5-(2,6-Dimethyl-pyrimidin-4-ylamino)-3′-hydroxymethyl-1-methyl-6-oxo-1,6-dihydro-[3,4′]bipyridinyl-2′-yl]-7,7-dimethyl-3,4,7,8-tetrahydro-2H,6H-cyclopenta[4,5]pyrrolo[1,2-a]pyrazin-1-one]	1000
C[C@H]1CN(C2COC2)CCN1c1ccc(Nc2cc(-c3ccnc(N4CCn5c(cc6c5[C@@H]5CC[C@H]6C5)C4=O)c3CO)cn(C)c2=O)nc1 [Example 174, (1R,11S)-6-[3-(Hydroxymethyl)-4-[1-methyl-5-({5-[(2S)-2-methyl-4-(oxetan-3-yl)piperazin-1-yl]pyridin-2-yl}amino)-6-oxo-1,6-dihydropyridin-3-yl]pyridin-2-yl]-3,6-diazatetracyclo[9.2.1.0^2,10.0^3,8]tetradeca-2(10),8-dien-7-one]	101
CC[C@H]1CN(C2COC2)CCN1c1ccc(Nc2cc(-c3ccnc(-n4ncc5c6c(sc5c4=O)CCCC6)c3CO)cn(C)c2=O)nc1 [Example 175, 3-{5-[5-((S)-2-Ethyl-4-oxetan-3-yl-piperazin-1-yl)-pyridin-2-ylamino]-3′-hydroxymethyl-1-methyl-6-oxo-1,6-dihydro-[3,4′]bipyridinyl-2′-yl}-6,7,8,9-tetrahydro-3H-benzo[4,5]thieno[2,3-d]pyridazin-4-one]	46.6
C[C@H]1CN(C2COC2)CCN1c1ccc(Nc2cc(-c3ccnc(-n4ccn5c6c(cc5c4=O)CCCC6)c3CO)cn(C)c2=O)nc1 [Example 176, (S)-2-(3-(hydroxymethyl)-4-(1-methyl-5-(5-(2-methyl-4-(oxetan-3-yl)piperazin-1-yl)pyridin-2-ylamino)-6-oxo-1,6-dihydropyridin-3-yl)pyridin-2-yl)-6,7,8,9-tetrahydropyrazino[1,2-a]indol-1(2H)-one]	37.5
CCN1CCn2nc(Nc3cc(-c4ccnc(N5CCn6c(cc7c6CCCC7)C5=O)c4CO)cn(C)c3=O)cc2C1 [Example 177, 2-(4-(5-(5-ethyl-4,5,6,7-tetrahydropyrazolo[1,5-a]pyrazin-2-ylamino)-1-methyl-6-oxo-1,6-dihydropyridin-3-yl)-3-(hydroxymethyl)pyridin-2-yl)-3,4,6,7,8,9-hexahydropyrazino[1,2-a]indol-1(2H)-one]	107
Cn1cc(-c2ccnc(-n3ncc4c5c(sc4c3=O)CCCC5)c2CO)cc(Nc2ccccn2)c1=O [Example 178, 3-[3′-Hydroxymethyl-1-methyl-6-oxo-5-(pyridin-2-ylamino)-1,6-dihydro-[3,4′]bipyridinyl-2′-yl]-6,7,8,9-tetrahydro-3H-benzo[4,5]thieno[2,3-d]pyridazin-4-one]	1100
Cc1nccc(Nc2cc(-c3ccnc(N4CCn5c(cc6c5CC(C)(C)C6)C4=O)c3CO)cn(C)c2=O)n1 [Example 179, 2-[3′-Hydroxymethyl-1-methyl-5-(2-methyl-pyrimidin-4-ylamino)-6-oxo-1,6-dihydro-[3,4′]bipyridinyl-2′-yl]-7,7-dimethyl-3,4,7,8-tetrahydro-2H,6H-cyclopenta[4,5]pyrrolo[1,2-a]pyrazin-1-one]	209
Cc1cc(Nc2cc(-c3ccnc(N4CCn5c(cc6c5CC(C)(C)C6)C4=O)c3CO)cn(C)c2=O)ncn1 [Example 180, 2-[3′-Hydroxymethyl-1-methyl-5-(6-methyl-pyrimidin-4-ylamino)-6-oxo-1,6-dihydro-[3,4′]bipyridinyl-2′-yl]-7,7-dimethyl-3,4,7,8-tetrahydro-2H,6H-cyclopenta[4,5]pyrrolo[1,2-a]pyrazin-1-one]	245
CN1CCn2nc(Nc3cc(-c4ccnc(-n5ncc6c7c(sc6c5=O)CCCC7)c4CO)cn(C)c3=O)cc2C1 [Example 181, 3-[3′-Hydroxymethyl-1-methyl-5-(5-methyl-4,5,6,7-tetrahydro-pyrazolo[1,5-a]pyrazin-2-ylamino)-6-oxo-1,6-dihydro-[3,4′]bipyridinyl-2′-yl]-6,7,8,9-tetrahydro-3H-benzo[4,5]thieno[2,3-d]pyridazin-4-one]	144
Cn1cc(-c2ccnc(-n3ncc4c5c(sc4c3=O)CCCC5)c2CO)cc(Nc2ccncn2)c1=O [Example 182, 3-[3′-Hydroxymethyl-1-methyl-6-oxo-5-(pyrimidin-4-ylamino)-1,6-dihydro-[3,4′]bipyridinyl-2′-yl]-6,7,8,9-tetrahydro-3H-benzo[4,5]thieno[2,3-d]pyridazin-4-one]	813
Cn1cc(-c2ccnc(N3CCn4c5c(c(F)c4C3=O)CCCC5)c2CO)cc(Nc2ccccn2)c1=O [Example 183, 10-fluoro-2-(3-(hydroxymethyl)-4-(1-methyl-6-oxo-5-(pyridin-2-ylamino)-1,6-dihydropyridin-3-yl)pyridin-2-yl)-3,4,6,7,8,9-hexahydropyrazino[1,2-a]indol-1(2H)-one]	906
Cn1cc(-c2ccnc(N3CCc4c(sc5c4CC(C)(C)C5)C3=O)c2CO)cc(Nc2cnccn2)c1=O [Example 184, 6-[3′-Hydroxymethyl-1-methyl-6-oxo-5-(pyrazin-2-ylamino)-1,6-dihydro-[3,4′]bipyridinyl-2′-yl]-2,2-dimethyl-2,3,5,6-tetrahydro-1H,4H-8-thia-6-aza-cyclopenta[a]inden-7-one]	601
Cn1cc(-c2ccnc(N3CCn4c(cc5c4CC(C)(C)C5)C3=O)c2CO)nc(Nc2ccn3ccnc3c2)c1=O [Example 185, 2-{3-Hydroxymethyl-4-[6-(imidazo[1,2-a]pyridin-7-ylamino)-4-methyl-5-oxo-4,5-dihydro-pyrazin-2-yl]-pyridin-2-yl}-7,7-dimethyl-3,4,7,8-tetrahydro-2H,6H-cyclopenta[4,5]pyrrolo[1,2-a]pyrazin-1-one]	1300
Cn1cc(-c2ccnc(N3CCn4c5c(c(F)c4C3=O)CCCC5)c2CO)nc(Nc2cccnc2)c1=O [Example 186, 10-fluoro-2-(3-(hydroxymethyl)-4-(4-methyl-5-oxo-6-(pyridin-3-ylamino)-4,5-dihydropyrazin-2-yl)pyridin-2-yl)-3,4,6,7,8,9-hexahydropyrazino[1,2-a]indol-1(2H)-one]	1600
